Data from PubChem BioAssay (NCI).
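96-well plates; 48 h exposure; 5 concentrations. Endpoints by linear interpolation between flanking doses. Not reached: highest tested concentration assigned. GI50 = concentration required for 50% inhibition of growth. The concentration for full growth arrest is given as TGI.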

How the values were obtained:
Assay in all cases: DTP human tumour cell line panel, 48 h
[1] = system: ACHN renal
[2] = system: CAKI-1 renal
[3] = system: HT29 colon
[4] = system: KM12 colon
[5] = system: RPMI-8226 leukemia
[6] = system: SN12C renal
[7] = system: SNB-75 CNS
[8] = system: SR leukemia
[9] = system: UACC-257 melanoma
[10] = system: MCF7 breast

Row | SMILES | TGI [1] [µM] | TGI [2] [µM] | TGI [3] [µM] | TGI [4] [µM] | TGI [5] [µM] | TGI [6] [µM] | TGI [7] [µM] | TGI [8] [µM] | TGI [9] [µM] | GI50 [1] [µM] | GI50 [2] [µM] | GI50 [3] [µM] | GI50 [4] [µM] | GI50 [10] [µM] | TGI [10] [µM] | GI50 [5] [µM] | GI50 [6] [µM] | GI50 [7] [µM] | GI50 [9] [µM] | GI50 [8] [µM]
1 | Cc1cc(C)nc(NS(=O)(=O)c2ccc(NC(=O)COC(=O)c3cccc4c(=O)c5ccccc5[nH]c34)cc2)n1 | > 100 | > 100 | > 100 | 38.8 | > 100 | > 100 | 73.5 | 76.4 | 65.1 | – | – | – | – | – | – | – | – | – | – | –
2 | CCN(CC)CC(O)c1cc(-c2ccc(Cl)cc2)nc2c(C)c(Cl)ccc12 (stereo unspecified) | 3.03 | 2.69 | 2.94 | 3.14 | 5.71 | 3.22 | 2.65 | – | 3.81 | 1.63 | 1.29 | 1.55 | 1.72 | 1.5 | 2.9 | 2.41 | 1.5 | 1.37 | 2.12 | –
3 | C=C(Br)COc1ccc2c(C)cc(=O)oc2c1 | > 100 | > 100 | > 100 | 12.1 | > 100 | > 100 | – | > 100 | > 100 | – | – | – | – | – | 19.7 | – | – | – | – | –
4 | Fc1ccc(N=C2C=CC(=Nc3ccc(F)cc3)c3ccccc32)cc1 | > 100 | – | > 100 | – | > 100 | > 100 | > 100 | > 100 | > 100 | – | – | – | – | – | – | – | – | – | – | –
5 | CCCCCCCCCCCCCCCCCC[S+](C)CC (stereo unspecified) | 2.96 | 1.6 | – | 2.45 | – | 4.44 | – | – | – | 1.33 | 0.409 | – | 1.14 | 1.86 | 4.99 | – | 1.86 | – | – | –
6 | Cc1ccc(NC(=O)CC2SC(=Nc3ccc(Cl)cc3)NC2=O)cc1C (stereo unspecified) | 29.6 | 35.9 | 33.2 | 40.3 | 21.2 | 31.9 | 33.2 | 29.4 | 29.4 | – | – | – | – | – | – | – | – | – | – | –
7 | CC[C@@]1(O)C(=O)OCc2c1cc1n(c2=O)Cc2c-1nc1cc(F)c(C)c3c1c2[C@@H](NC(=O)CO)CC3 | 0.131 | 0.117 | – | > 100 | 1.67 | – | 0.133 | > 100 | 1.02 | < 0.01 | < 0.01 | 0.0512 | 0.149 | – | – | 0.0721 | < 0.01 | < 0.01 | 0.047 | < 0.01
8 | CC(C)C1=CC2=C(C(=O)C1=O)C13CCCC(C)(C)C1CC2OC3=O (stereo unspecified) | 38.6 | 44.1 | 26.3 | > 100 | 39.7 | 43.6 | 63.8 | – | 71 | – | – | – | – | – | 55.5 | – | – | – | – | –
9 | COc1cc(CC(=O)O)c([N+](=O)[O-])cc1OC | > 100 | > 100 | > 100 | > 100 | > 100 | > 100 | > 100 | – | > 100 | – | – | – | – | – | – | – | – | – | – | –
10 | O=C(/C=C/C=C/c1ccc2c(c1)OCO2)N/N=C\c1ccc(O)cc1O | 13.1 | 15.2 | 26.2 | 20.6 | – | 16.2 | 9.41 | > 100 | 15.9 | 1.99 | 2.24 | 3.78 | 2.92 | 2.6 | 13.7 | – | 2.98 | 1.89 | 3.06 | 0.571
11 | CO/C(=C1/NC(=O)C(Cc2ccc(O)c(Br)c2)N(C)C(=O)C(C)NC(=O)CCC/C=C(\C)CCC(C)OC1=O)c1ccccc1 (stereo unspecified) | 0.0623 | 0.0509 | – | 19.2 | 0.0607 | > 100 | – | > 100 | 0.15 | 0.0192 | 0.0196 | < 0.0135 | 0.0784 | < 0.0165 | 1.9 | < 0.0155 | 0.0695 | – | 0.029 | –
12 | COc1cc(N2CCC(N)CC2)ccc1Nc1ncc(Cl)c(-c2c[nH]c3ccccc23)n1 | 1.94 | 2.1 | 1.43 | 1.14 | 3.89 | 3.76 | 1.97 | – | 2.34 | 0.292 | 0.335 | 0.0343 | 0.302 | 0.0283 | 1.41 | 1.28 | 0.869 | 0.417 | 1.02 | –
13 | O=C(CC1(O)C(=O)Nc2ccccc21)c1ccccc1O (stereo unspecified) | > 100 | > 100 | > 100 | – | > 100 | > 100 | > 100 | – | > 100 | – | – | – | – | – | – | – | – | – | – | –
14 | Cc1cc(C)c(/C=N/NS(=O)(=O)c2ccccc2)c(C)c1 | > 100 | > 100 | > 100 | > 100 | > 100 | > 100 | > 100 | > 100 | > 100 | – | – | – | – | – | – | – | – | – | – | –
15 | CC(=O)Nc1ccc(C2=N/C(=C\c3ccc(Cl)cc3)C(=O)O2)cc1 | 94 | > 100 | > 100 | > 100 | > 100 | 61.5 | > 100 | 61.2 | > 100 | – | – | – | – | – | – | – | – | – | – | –
16 | COCCn1c2c([n+](Cc3cnccn3)c1C)C(=O)c1ccccc1C2=O | 2.11 | > 100 | 0.111 | 0.557 | < 0.0114 | 0.0316 | 0.107 | 6.85 | < 0.01 | 0.04 | 2.72 | 0.0309 | 0.0376 | – | – | < 0.01 | < 0.01 | 0.0313 | < 0.01 | < 0.0108
17 | [CH3][Hg]/[N]=C(/N)NC#N | 26.4 | 25.7 | 50.8 | 30 | > 100 | 28.5 | 24.4 | 39.9 | 17.4 | 13.5 | 12.9 | 19.9 | 16.5 | – | – | 2.62 | 14 | 12.1 | 5.1 | 4.39
18 | COc1ccc2nc3ccccc3c(NCCN(CCCl)CCCl)c2c1 | 2.53 | 0.937 | 61.1 | 4.37 | – | 4.21 | 5.72 | 0.379 | 3.99 | – | – | – | – | – | – | – | – | – | – | –
